According to US20210290644A1, “COMPOUNDS AND METHODS FOR TREATING FUNGAL INFECTIONS” (Amplyx Pharmaceuticals, Inc., priority 2018, published 2021):
Converted amounts (≈) assume the structure as drawn. “Also recorded” adds a separate entry of the source. Like-named read-outs stand apart in the source and are kept apart here.

What was measured:
[1] = Compound 1 pH solubility at room temperature; type: physicochemical
[2] = pH stability of Compound 1 in buffer solutions stored at 40° C.; type: physicochemical; details: buffer solutions pH 7-8, stored at 40° C., up to seven days
Experimental: The pH stability in buffer solutions were also evaluated for pH levels 7, 8, and 9 when stored at 40° C.

[3] = test system: Candida (C. albicans, C. glabrata, or C. auris); assay: PK-PD studies in immunocompromised mice infected with Candida (fungal burden, CFUs in the kidney); type: in vivo; details: dose fractionations
Experimental: In PK-PD studies, immunocompromised mice were infected with one of three spp. of Candida (C. albicans, C. glabrata, or C. auris) and groups of animals were dosed with Compound 1 at different dose fractionations. […] The stasis endpoint was defined as the quantity of Candida spp. in CFUs just prior to Compound 1 administration compared to CFUs at the endpoint of assessment (i.e., 24 hours for C. albicans; 96 hours for C. glabrata and C. auris).
In pharmacokinetic/pharmacodynamic (PK-PD) studies, immunocompromised mice were infected with one of three spp. of Candida (C. albicans, C. glabrata, or C. auris) and groups of animals were dosed with Compound 1 at different dose fractionations.

[4] = Binary excipient compatibility study of Compound 1; type: physicochemical; details: binary mixtures, after 3 weeks at either storage condition
Experimental: For each excipient screened, there were […] (5° C., room temperature, 40° C./75% RH, 50° C.) that could be pulled at 3 weeks or 4 weeks as shown in Table 85. For contingency, one vial was stored at each condition per excipient. At each time point, an appropriate active sample control vial from each condition was reconstituted and analyzed in addition to the compatibility samples.

[5] = Compound 1 Injection 20 mg/mL batch analysis and stability (appearance, HPLC assay, related substances, pH, particulate matter); type: physicochemical; details: 72-hour stability data at 20 mg/mL
Experimental: The HPLC method used in the stability studies for Compound 1 Injections, 20 mg/mL is a specific and stability-indicating method used for the determination of assay, related substances, content uniformity, identification, and absence of Compound 1 in Compound 1 Injection at 20 mg/mL. The method is a gradient reverse phase HPLC system to measure assay, purity, and related substances. The assay (% w/w) is determined by comparing the peak response of the sample to that of a standard. The same HPLC method used for purity and related substances is used to measure related substances. Related substances to Compound 1 drug substance are reported as area percent. The area of an impurity is divided by the total area of all sample-related peaks. Related substances are reported by retention time relative to the parent peak (RRT).
Compound 1 Injection, 20 mg/mL, was prepared as a non-buffered solution suitable for Phase 1 clinical studies containing Compound 1, sodium chloride, and pH adjustment using hydrochloric acid and/or sodium hydroxide to pH 7.5. […] Samples have been analyzed for appearance, assay, related substance, and pH. Compound 1 Injection, engineering batch #707 manufactured under GMP was placed on an ICH stability program at 5° C. and 25° C./60% RH. Samples have been analyzed for appearance, assay, related substance, particulate matter, and pH. […]

[6] = Additional Phase 1 study of Compound 1: IV loading, IV maintenance, then oral through Day 42, safety; type: in vivo, human; details: 1000 mg IV 3-hour BID Day 1, 600 mg IV 3-hour QD Days 2-7, 800 mg orally QD Days 8-42
[7] = in vivo
From the text: This was a Phase 1, first-in-human, randomized, double-blind, placebo-controlled single ascending dose (SAD) and multiple ascending dose (MAD) escalation study of 120 healthy male and female subjects. The objectives of the study were to evaluate the safety, tolerability, and pharmacokinetics of single and multiple doses of Compound 1 administered by intravenous (IV) infusion.
(§1) In the single ascending dose (SAD) phase, Cohorts 1 to 6 and 11A to 11D received single doses. For Cohorts 11A to 11D, the infusion time varied from 0.5 to 3 hours to evaluate the relationship between C., and tolerability. In the multiple ascending dose (MAD) phase, Cohorts 7 to 10 received multiple doses over 14 days, and Cohort 12 examined the feasibility of a loading dose regimen.
Blood samples for the determination of Compound 1 and Compound 1A plasma concentrations were collected before and at appropriate times during all single- and multiple-dose administrations of Compound 1. For SAD Cohorts 1 to 6, urine samples for the determination of Compound 1A were collected through 48 hrs after dosing.
Eighty (80) subjects were enrolled into SAD Cohorts 1 to 6 and 11A to 11D. Within each cohort, six subjects were randomized to Compound 1 and two subjects to placebo. All 60 subjects randomized to Compound 1 completed dosing. Fifty-nine (59) subjects completed the study.
Forty (40) subjects were enrolled into MAD Cohorts 7 to 10 and Loading Dose Cohort 12. Within each cohort, six subjects were randomized to Compound 1 and two subjects to placebo.
The PK analysis population therefore consisted of 60 subjects in the SAD phase and 28 subjects in the MAD phase.

[8] = Study #1 Phase 1: safety and tolerability (TEAEs) of IV Compound 1
Experimental: This was a Phase 1, first-in-human, randomized, double-blind, placebo-controlled single ascending dose (SAD) and multiple ascending dose (MAD) escalation study of 120 healthy male and female subjects.
as §1

[9] = Study #2 Phase 1: pharmacokinetics after single IV and single/multiple oral doses of Compound 1, absolute oral bioavailability; details: Cohort 1A, Period A, 200 mg IV;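 note: phase 1 study design: one IV dose, then escalating single oral doses, fed versus fasted single oral dosing, and once-daily oral dosing over 14 days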
From the text: In the single ascending dose (SAD) phase, subjects in Cohort 1a received a single IV dose in Period A and then rising single oral doses in Periods B to D. Subjects in Cohort 1b received a single oral dose under fed and fasted conditions in Periods E and F. Subjects in Cohorts 2 and 3 received once-daily oral doses for 14 days, as did subjects in Cohort 4 as part of an in vivo screen for drug-drug interaction (DDI) potential.
For SAD Cohorts 1a and 1b, urine samples for the determination of Compound 1A were collected through 48 hrs after dosing.
Forty-six (46) subjects were enrolled into the study, 8 in Cohort 1a, 10 in Cohort 1b, and 8 each in Cohorts 2 and 3.

[10] = 100 mg sd oral treatment period
[11] = 300 mg sd oral treatment period
[12] = 500 mg sd oral treatment period
[13] = 1000 mg/0.5 hr IV single dose group
[14] = 1000 mg/1 hr IV single dose group
[15] = 1000 mg/2 hr IV single dose group
[16] = 1000 mg/3 hr IV single dose group
[17] = Cohort 12 loading dose regimen (1000 mg IV 2-hour twice on Day 1 + 600 mg IV 1-hr QD Days 2-7)

Compound: Nc1c(-c2cc(Cc3ccc(COc4ccccn4)cc3)no2)ccc[n+]1COP(=O)([O-])O [Compound 1]
- solubility ([1]; 50 mM phosphate buffer, pH 7.5, aqueous buffer, Study B, pH 7.5 (50 mM phosphate buffer)): 141000 µg/mL (≈ 301 mM)
- solubility ([1]; pH 1, simulated gastric fluid, Study A, pH 1): 3830 µg/mL (≈ 8.18 mM)
- solubility ([1]; pH 3, aqueous buffer, Study A, pH 3): 111 µg/mL (≈ 0.237 mM)
- solubility ([1]; pH 4, aqueous buffer, Study A, pH 4): 63 µg/mL (≈ 0.134 mM)
- solubility ([1]; pH 5, aqueous buffer, Study A, pH 5): 125 µg/mL (≈ 0.267 mM)
- solubility ([1]; pH 6, aqueous buffer, Study A, pH 6): 758 µg/mL (≈ 1.62 mM)
- solubility ([1]; pH 6.5, aqueous buffer, Study B, pH 6.5): 4300 µg/mL (≈ 9.18 mM)
- solubility ([1]; pH 7, aqueous buffer, Study A, pH 7, saturation not achieved): > 17600 µg/mL
- solubility ([1]; pH 7, aqueous buffer, Study B, pH 7.0): 53700 µg/mL (≈ 115 mM)
- solubility ([1]; pH 7.5, aqueous buffer, Study A, pH 7.5, saturation not achieved): > 28500 µg/mL
- solubility ([1]; pH 8.5, aqueous buffer, Study A, pH 8.5, saturation not achieved): > 80000 µg/mL
- solubility ([1]; phosphate buffer, pH 7, aqueous buffer, Study B, pH 7.0 (with phosphate buffer)): 20900 µg/mL (≈ 44.6 mM)
- change in potency [2]: < 3%
- PK-PD variable that best correlated with antifungal efficacy (fungal burden, CFUs in the kidney) [3]: AUC/MIC ratio
- compatibility with excipients (total purity profile) [4]: compatible with the tested excipients
- degradation [5]: < 0.10%
- safety and tolerability [6]: safe and well tolerated
- exposures to the prodrug relative to those of the active Compound 1A ([7]; both, human, iv): < 5%
- time after start of infusion by which prodrug concentrations are <LOQ ([7]; both, human, iv): at most 8 hrs
- accumulation of prodrug following multiple dosing [7]: essentially no accumulation
- number of TEAEs [10]: 2 TEAEs
- subjects reporting TEAEs [10]: 33%
- number of TEAEs (200 mg sd IV treatment period): 3 TEAEs
- subjects reporting TEAEs (200 mg sd IV treatment period): 50%
- number of TEAEs [11]: 6 TEAEs
- subjects reporting TEAEs [11]: 50%
- number of TEAEs (500 mg md oral group): 24 TEAEs
- subjects reporting TEAEs (500 mg md oral group): 83%
- number of TEAEs [12]: 1 TEAE
- subjects reporting TEAEs [12]: 17%
- safety and tolerability (1000 mg PO QD on Days 1 through 14): safe and well tolerated
- number of TEAEs (1000 mg md oral group): 119 TEAEs
- subjects reporting TEAEs (1000 mg md oral group): 100%
- deaths or SAEs (Study #2): no deaths or SAEs reported
- dose-limiting toxicities (DLTs) (Study #2): No DLTs were observed
- maximum tolerated dose (MTD) (Study #2): not determined/reached
- safety and tolerability (all doses in Study #2): safe and well tolerated
- tolerability (multiple oral doses of 500 mg and 1000 mg once daily for 14 consecutive days): well tolerated by the majority of subjects
- tolerability (single IV doses of 200 mg and single oral doses 100 mg to 500 mg): well tolerated
- effect of dosing under fed conditions on tolerability (single-dose crossover food effect cohort, TEAEs related to Gastrointestinal and Nervous System Disorders): improve tolerability
- number of TEAEs [8, 13]: 21 TEAEs
- subjects reporting TEAEs [8, 13]: 100%
- number of TEAEs [8, 14]: 25 TEAEs
- subjects reporting TEAEs [8, 14]: 100%
- number of TEAEs [8, 15]: 22 TEAEs
- subjects reporting TEAEs [8, 15]: 100%
- number of TEAEs [8, 16]: 13 TEAEs
- subjects reporting TEAEs [8, 16]: 83%
- number of TEAEs [8, 17]: 38 TEAEs
- subjects reporting TEAEs [8, 17]: 100%
- maximum tolerated dose (MTD) ([8]; Study #1 and Study #2): not determined/not reached
- severe TEAEs or SAEs ([8]; Study #1 and Study #2): no severe or very severe TEAEs or SAEs reported
- dose-limiting toxicities ([8]; Study #1 and Study #2 (two Phase 1 studies)): no dose-limiting toxicities observed; also recorded: No DLTs were observed
- tolerability ([8]; all single and multiple IV and oral doses, Study #1 and Study #2): well tolerated
- safety and tolerability ([8]; faster infusions (single dose: 2, 1 and 0.5 hrs; multiple dose: 1 hr)): safe and well tolerated
- safety and tolerability ([8]; loading dose 1000 mg IV twice on Day 1 (2-hr infusion), maintenance 600 mg QD): safe and well tolerated
- tolerability ([8]; multiple IV doses up to 600 mg once daily for 14 consecutive days): well tolerated by the majority of subjects
- tolerability ([8]; single IV doses up to 350 mg over 3 hours and 1000 mg over 0.5-, 1-, 2-, 3-hour infusions): well tolerated
- time after IV infusion through which prodrug plasma concentrations were ≥LOQ [9]: ≤ 4 h
